Data on 18 compounds can be found in patent US20240262842A1, “SMALL MOLECULE INHIBITORS OF KRAS G12C MUTANT” (Merck Sharp & Dohme LLC, priority 2021, published 2024).

Where two headings read alike, the source gives them in different places. Some results are limits rather than exact numbers.

For orientation: IC50 means the point on the concentration scale where inhibition reaches its midpoint.

The target of experiment [1] is biotinylated KRAS G12C protein (GMP-PNP loaded) and GST-tagged Ras binding domain of c-RAF (Homo sapiens, UniProt P01116, C118S/C51S/C80L/G12C). Description: RAS:RAF-RBD binding assay (TR-FRET). The following applies: 30-minute incubation of compound with KRAS G12C before RAF-RBD; Table 4; read-out: IC50. A general note: In TR-FRET formats the signal depends on donor and acceptor labels being close together.

The target of experiment [2] is T1, interaction between GMPPNP-bound recombinant K-Ras4B G12C mutant protein and cRAF RAS-binding domain (cRAF-RBD) (Homo sapiens, UniProt P01116, G12C).
T1 construct: His-tag (N)
Put plainly: Inhibitory activity on interaction between KRAS G12C and cRAF (Alpha technology). Particulars: GMPPNP-bound KRAS G12C incubated with compound 25° C. 1 hour, read-out: IC50. In a few lines: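 His-tagged K-Ras4B G12C (aa 1-169), GMPPNP-loaded, preincubated with compound 1 h at 25° C in pH 7.5 Tris buffer with MgCl2, TCEP, Tween 20. cRAF-RBD (aa 50-132) and Alpha reagents then added for 1.5 h; Alpha signal normalised to DMSO (0%) and GDP-bound KRAS (100%); IC50 from dose titration.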

The subject of a further experiment is MIA PaCa-2 cells. Put plainly: Growth inhibition activity on KRAS-G12C mutant cell line (CellTiter-Glo 3D). Type of experiment: cell-based, human. The following applies: MIA PaCa-2, 3-day culture with compound. An outline of the steps:
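MIA PaCa-2 cells in RPMI1640 with 10% FBS, U-bottom wells, cultured 1 day before compound (0.2% DMSO final), then 3 days at 37 °C, 5% CO2. Viability by CellTiter-Glo 3D luminescence; growth inhibition versus untreated wells gives IC50 (nM).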

Where [3] appears, read: Homo sapiens, MIA PaCa-2, 72 h, Table 3-1.

For `Cc1nc2c3c(c(C(F)(F)F)cc2n1C)-c1cccn2c(C(=O)c4cc(F)c(NC(=O)/C=C/CN5CC(F)C5)c(F)c4)cc(c12)CCN3C` [Example 285, (E)-N-(2,6-difluoro-4-(9,10,12-trimethyl-7-(trifluoromethyl)-9,12,13,14-tetrahydroimidazo[4″,5″:5′,6′]benzo[1′,2′:2,3]azocino[4,5,6-hi]indolizine-2-carbonyl)phenyl)-4-(3-fluoroazetidin-1-yl)but-2-enamide], the IC50 in experiment [1] came to 85 nM.

Take `Cc1nc2c3c(c(C(F)(F)F)cc2n1C)-c1cccn2c(C(=O)c4cc(F)c(NC(=O)/C=C/CN5CCC5CC(C)(C)O)c(F)c4)cc(c12)CCN3C` (single isomer, unassigned) [Example 298, (E)-1-(4-((2,6-difluoro-4-(9,10,12-trimethyl-7-(trifluoromethyl)-9,12,13,14-tetrahydro-imidazo[4″,5″:5′,6′]benzo-[1′,2′:2,3]azocino[4,5,6-hi]indolizine-2-carbonyl)-phenyl)amino)-4-oxobut-2-en-1-yl)-2-(2-hydroxy-2-methylpropyl)azetidin-1-ium 2,2,2-trifluoro-acetate]: the IC50 in experiment [1] turned out to be 41.6 nM.

As to `Cc1nc2c3c(c(C(F)(F)F)cc2n1C)-c1cccn2c(C(=O)c4cc(F)c(NC(=O)/C=C/CNC5CC(F)(F)C5)c(F)c4)cc(c12)CCO3` [Example 277, (E)-N-(4-((4-(9,10-dimethyl-7-(trifluoro-methyl)-13,14-dihydro-9H-imidazo[4″,5″:5′,6′]-benzo[1′,2′:2,3]oxocino-[4,5,6-hi]indolizine-2-carbonyl)-2,6-difluoro-phenyl)amino)-4-oxobut-2-en-1-yl)-3,3-difluoro-cyclobutan-1-aminium 2,2,2-trifluoroacetate], the 50% inhibitory concentration (IC50) in experiment [1] was determined as 26.4 nM.

In the case of `Cc1nc2c3c(c(C(F)(F)F)cc2n1C)-c1cccn2c(C(=O)c4cc(F)c(NC(=O)C=CCN5CCCC5C5(O)CC5)c(F)c4)cc(c12)CCO3` (stereo not shown) [Example 255, mono(2-(3,5-difluoro-4-((E)-4-((28)-2-(1-hydroxy-cyclopropyl)pyrrolidin-1-ium-1-yl)but-2-enamido)-benzoyl)-9,10-dimethyl-7-(trifluoromethyl)-13,14-dihydro-9H-imidazo-[4″,5″:5′,6′]benzo[1′,2′: 2,3]oxocino[4,5,6-hi]-indolizin-11-ium) mono-(2,2,2-trifluoroacetate)], the IC50 in experiment [1] came out at 11.7 nM.

For `Cc1nc2c3c(c(C(F)(F)F)cc2n1C)-c1cccn2c(C(=O)c4cc(F)c(NC(=O)/C=C/CN5CCC[C@H]5CO)c(F)c4)cc(c12)CCO3` [Example 256, mono(2-(3,5~difluoro-4-((E)-4-((2S)-2-(hydroxy-methyl)pyrrolidin-1-ium-1-yl)but-2-enamido)ben-zoyl)-9,10-dimethyl-7-(trifluoromethyl)-13,14-dihydro-9H-imidazo-[4,5″:5′,6′]benzo[1′,2′: 2,3]oxocino[4,5,6-hi]-indolizin-11-ium) mono-(2,2,2-trifluoroacetate)], the IC50 in experiment [1] turned out to be 4.7 nM.

As to `Cc1nc2c3c(c(C(F)(F)F)cc2n1C)-c1cccn2c(C(=O)c4cc(F)c(NC(=O)/C=C/CNCC5(F)CC5)c(F)c4)cc(c12)CCO3` [Example 276, (E)-4-((4-(9,10-dimethyl-7-(trifluoromethyl)-13,14-dihydro-9H-imidazo-[4″,5″:5′,6′]benzo[1′,2′: 2,3]oxocino[4,5,6-hi]-indolizine-2-carbonyl)-2,6-difluorophenyl)-amino)-N-((1-fluorocyclo-propyl)methyl)-4-oxobut-2-en-1-aminium 2,2,2-trifluoroacetate], the IC50 in experiment [1] came out at 8.05 nM.

`Cc1nc2c3c(c(C(F)(F)F)cc2n1C)-c1cccn2c(C(=O)c4cc(F)c(NC(=O)/C=C/CN5CCC5CC(C)(C)O)c(F)c4)cc(c12)CCN3C` (single isomer, unassigned) [Example 299, (E)-1-(4-((2,6-difluoro-4-(9,10,12-trimethyl-7-(trifluoromethyl)-9,12,13,14-tetrahydro-imidazo[4″,5″:5′,6′]benzo-[1′,2′:2,3]azocino[4,5,6-hi]indolizine-2-carbonyl)-phenyl)amino)-4-oxobut-2-en-1-yl)-2-(2-hydroxy-2-methylpropyl)azetidin-1-ium 2,2,2-trifluoroacetate]: in experiment [1], the IC50 came out at 52.5 nM.

Consider “(2S)-1-((Z)-4-((4-(9,10- dimethyl-7-(trifluorometh- yl)-13,14-dihydro-9H- imidazo[4″,5″:5′,6′]benzo- [1′,2′:2,3loxocino[4,5,6- hi]indolizine-2-carbonyl)- 2,6-difluorophenyl)amino)- 3-fluoro-4-oxobut-2-en-1- yl)-2-(hydroxymethyl)- azetidin-1-ium2,2,2- trifluoroacetate [Example 262]”, for which the IC50 in experiment [1] came to 15.1 nM.

As to `Cc1nc2c3c(c(C(F)(F)F)cc2n1C)-c1cccn2c(C(=O)c4cc(F)c(NC(=O)/C=C/CN5CCC[C@@]5(C)C(C)O)c(F)c4)cc(c12)CCO3` (single isomer, unassigned) [Example 259], the IC50 in experiment [1] was found to be 14.2 nM.

In the case of `CO[C@H]1CCCC[C@H]1NC/C=C/C(=O)Nc1c(F)cc(C(=O)c2cc3c4c(cccn24)-c2c(C(F)(F)F)cc4c(nc(C)n4C)c2OCC3)cc1F` [Example 268, (E)-N-(4-(9,10-dimethyl-7-(trifluoromethyl)-13,14-dihydro-9H-imidazo-[4″,5″:5′,6′]benzo[1′,2′: 2,3]oxocino[4,5,6-hi]-indolizine-2-carbonyl)-2,6-difluorophenyl)-4-(((1R,2S)-2-methoxy-cyclohexyl)amino)but-2-enamide], the IC50 in experiment [1] came out at 12.8 nM.

As for `COCc1nc2c3c(c(OC)cc2n1C)-c1cccn2c(C(=O)c4cc(F)c(NC(=O)/C(F)=C/CNC5(C)CC5)c(F)c4)cc(c12)CCN3C` [Example 286, (Z)-N-(2,6-difluoro-4-(7-methoxy-10-(methoxymethyl)-9,12-dimethyl-9,12,13,14-tetrahydroimidazo[4″,5″:5′,6′]benzo[1′,2′:2,3]azocino[4,5,6-hi]indolizine-2-carbonyl)phenyl)-2-fluoro-4-((1-methylcyclopropyl)amino)but-2-enamide], the IC50 in experiment [1] was 92.8 nM.

For `Cn1cnc2c3c(c(C(F)(F)F)cc21)-c1cccn2c(C(=O)c4cc(F)c(NC(=O)/C=C/CN5C[C@@H]6C[C@H]5CO6)c(F)c4)cc(c12)CCO3` [Example 189, (E)-4-((1S,4S)-2-oxa-5-azabicyclo[2.2.1]heptan-5-yl)-N-(2,6-difluoro-4-(9-methyl-7-(trifluoro-methyl)-13,14-dihydro-9H-imidazo[4″,5″:5′,6′]-benzo[1′,2′:2,3]oxocino-[4,5,6-hi]indolizine-2-carbonyl)phenyl)but-2-enamide], the IC50 in experiment [2] (Table 2-1) is 15.2 nM; with MIA PaCa-2 cells (setting [3]) it was 6.1 nM.

For `COCCn1c(C)nc2c3c(c(OC)cc21)-c1cccn2c(C(=O)c4cc(F)c(NC(=O)/C=C/CN[C@H]5CCOC5)c(F)c4)cc(c12)CCN3C` (single isomer, unassigned) [Example 201], the IC50 in experiment [2] (Table 2-1) amounted to 17.6 nM; in the experiment on MIA PaCa-2 cells (setting [3]), 5.83 nM.

Regarding `Cc1nc2c3c(c(C(F)(F)F)cc2n1C)-c1cccn2c(C(=O)c4cc(F)c(NC(=O)/C=C/CNC5(C)CCOCC5)c(F)c4)cc(c12)CCN3C` (single isomer, unassigned) [Example 70, (E)-N-(2,6-difluoro-4-(9,10,12-trimethyl-7-(tri-fluoromethyl)-9,12,13,14-tetrahydroimidazo[4″,5″: 5′,6′]benzo[1′,2′:2,3]-azocino[4,5,6-hi]indol-izine-2-carbonyl)phenyl)-4-((4-methyltetrahydro-2H-pyran-4-yl)amino)but-2-enamide], the IC50 was determined as 9.85 nM in experiment [2] (Table 2-1) and 2.49 nM in the experiment on MIA PaCa-2 cells (setting [3]).

Turning to `CN1CCc2cc(C(=O)c3cc(F)c(NC(=O)/C=C/CNC4(C)CSC4)c(F)c3)n3cccc(c23)-c2c(C(F)(F)F)cc3c(ncn3C)c21` [Example 249], the IC50 in experiment [2] (Table 2-1) turned out to be 27.5 nM; in the experiment with MIA PaCa-2 cells (setting [3]), 28.6 nM.

With `COCc1nc2c3c(c(C(F)(F)F)cc2n1C)-c1cccn2c(C(=O)c4cc(F)c(NC(=O)/C=C/CNC5(C)COC5)c(F)c4)cc(c12)CCN3C` (single isomer, unassigned) [Example 92, (E)-N-(2,6-difluoro-4-(10-(methoxymethyl)-9,12-dimethyl-7-(trifluoromethyl)-9,12,13,14-tetrahydroimidazo[4″,5″:5′,6′]benzo[1′,2′:2,3]azocino[4,5,6-hi]indolizine-2-carbonyl)phenyl)-4-((3-methyloxetan-3-yl)amino)but-2-enamide], the IC50 came to 19.9 nM in experiment [2] (Table 2-1) and 12.1 nM in the experiment with MIA PaCa-2 cells (setting [3]).

For the compound `Cc1nc2c3c(c(C(F)(F)F)cc2n1C)-c1cccn2c(C(=O)c4cc(F)c(NC(=O)/C=C/CN(C)C)c(F)c4)cc(c12)CCO3` (single isomer, unassigned) [Example 38-1], the half-maximal inhibitory concentration (IC50) was above 6700 nM in experiment [2] (Table 2) and 8300 nM in the experiment on MIA PaCa-2 cells (Table 3).

On to `COCCn1c(COC)[n+]([O-])c2c3c(c(OC)cc21)-c1cccn2c(C(=O)c4cc(F)c(NC(=O)/C=C/CNC5(C)CC5)c(F)c4)cc(c12)CCN3C` [Example 243, (E)-2-(3,5-difluoro-4-(4-((1-methylcyclopropyl)-amino)but-2-enamido)-benzoyl)-7-methoxy-9-(2-methoxyethyl)-10-(methoxymethyl)-12-methyl-9,12,13,14-tetra-hydroimidazo[4″,5″:5′,6′]-benzo[1′,2′:2,3]azocino-[4,5,6-hi]indolizine 11-oxide], for which the values for the IC50 (in experiment [2] (Table 2-1); with MIA PaCa-2 cells (setting [3])) were 83.2 nM and 91.8 nM, respectively.
